Data set [1] has as its target T1, human ETA receptors (Homo sapiens, UniProt P25101).
T1 construct: endogenous in cells; host or cells: TE 671 cells (ATCC HTB 139)
T1 sequence (P25101 21-427): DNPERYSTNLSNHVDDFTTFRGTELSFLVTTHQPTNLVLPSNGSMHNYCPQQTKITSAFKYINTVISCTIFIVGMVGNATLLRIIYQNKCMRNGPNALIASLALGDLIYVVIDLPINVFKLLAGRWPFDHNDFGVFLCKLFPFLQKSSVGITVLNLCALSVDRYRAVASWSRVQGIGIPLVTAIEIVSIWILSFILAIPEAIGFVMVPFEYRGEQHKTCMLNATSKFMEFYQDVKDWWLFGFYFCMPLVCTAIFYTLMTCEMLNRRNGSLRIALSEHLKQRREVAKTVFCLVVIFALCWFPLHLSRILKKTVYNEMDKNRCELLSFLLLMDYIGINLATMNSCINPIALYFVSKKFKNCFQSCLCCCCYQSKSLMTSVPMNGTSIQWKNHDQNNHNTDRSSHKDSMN
The experiment in a line: Binding Test #1: inhibition of 125I-ET-1 binding to ETA receptors (TE 671 cell membranes). The following applies: for IC50: read-out: ETA. In a few lines:
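Radioligand competition in triplicate: ¹²⁵I-endothelin-1 displaced by test compound (1 nM–100 μM final) from ETA-bearing TE 671 cell membranes in HEPES pH 7.4 binding buffer with NaCl, MgCl2 and bacitracin. Incubation 16–18 h at 4 °C (or at 24 °C); 80 nM ET-1 defines nonspecific binding; pellet radioactivity gives percent inhibition.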

Data set [2] has as its target T2, human ETB receptor (Homo sapiens, UniProt P24530).
T2 construct: expressed in transfected cells; host or cells: COS7 cells
T2 sequence (P24530 27-442): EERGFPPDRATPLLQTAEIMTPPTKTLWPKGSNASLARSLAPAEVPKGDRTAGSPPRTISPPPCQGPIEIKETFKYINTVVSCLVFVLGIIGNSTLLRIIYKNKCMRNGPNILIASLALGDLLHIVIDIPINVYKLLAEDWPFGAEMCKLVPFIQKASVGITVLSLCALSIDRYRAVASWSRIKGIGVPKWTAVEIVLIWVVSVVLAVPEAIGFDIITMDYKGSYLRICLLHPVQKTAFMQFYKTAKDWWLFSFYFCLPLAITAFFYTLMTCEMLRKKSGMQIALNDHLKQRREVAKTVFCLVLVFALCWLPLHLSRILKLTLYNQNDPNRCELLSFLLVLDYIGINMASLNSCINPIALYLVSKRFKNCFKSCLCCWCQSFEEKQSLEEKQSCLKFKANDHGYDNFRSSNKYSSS
The experiment in a line: Binding Test #2: inhibition of 125I-ET-1 binding to ETB receptors (transfected COS7 cell membranes). The following applies: Table 1, read-out: ETB. In a few lines: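 Competition with 125I-ET-1 for binding to membranes from COS7 cells transfected with human ETB receptor, used at 1 μg/50 μl binding buffer. Membranes prepared in HEPES pH 7.4 with aprotinin, including a DNase/MnCl2 step at 37 °C for 30 min.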

For data set [3], the system named is DOCA-salt hypertensive rat. The experiment in a line: Deoxycorticosterone acetate (DOCA)-salt hypertensive rat model. Type of data set: in vivo. The procedure:
E. Deoxycorticosterone Acetate (DOCA)-Salt Hypertensive Rat Model for Assessing in vivo Activity of Selected Compounds
Selected compounds disclosed herein have been tested for activity in the deoxycorticosterone acetate (DOCA)-salt hypertensive rat model. To perform these tests, silastic MDX4-4210 elastomer implants containing 47 mg (DOCA) were prepared according to the method of Ornmsbee et al. ((1973) the J. Pharm. Sci. 62:255-257). Briefly, DOCA is incorporated into silicon rubber implants for sustained release. To prepare the implants the DOCA is incorporated into unpolymerized silicone rubber, catalyst is added and the mixture is cast in a hemicylindrical shape.
Sprague Dawley rats (7-8 weeks old) were unilaterally nephrectomized under ketamine anesthesia and a DOCA-implant was placed on the left lateral dorsal abdomen of the animal. The rats were allowed to recover for three weeks. During recovery they were permitted free access to normal rat chow and 0.9% NaCl drinking solution in place of drinking water. The rats develop hypertension within 3 weeks.
All animals were used in the tests between 21 and 30 days post surgery. The mean arterial blood pressure in these animals ranged from 165-200 mm Hg.
On the day of experimentation, catheters were inserted under brevital anesthesia into the right femoral artery for measurement of blood pressure, and into the right femoral vein for administration of a selected compound. The animals were placed in a restrainer and allowed to recover for a minimum of 60 min or until a steady mean arterial blood pressure was recorded. At that time, the selected compound or control vehicle was administered either intravenously, as a 60 minute infusion, or orally by oral gavage. Blood pressure was recorded continuously for a further 10 hrs.

Data set [4] has as its system ET-1-induced pressor response. As to the kind of experiment: ET-1-induced pressor responses in conscious, autonomically blocked rats. Type of data set: in vivo, rat. The following applies: in 30 min at dosages as low as 30 mg/kg. The procedure:
Animals were placed in a restrainer and allowed to regain consciousness. Thirty minutes later autonomic blockade was administered (atropine methyl nitrate, 3 mg/kg, IV, followed by propranalol, 2 mg/kg, IV). An hour later animals received a bolus injection of vehicle (0.5 ml) followed thirty minutes later by intravenous bolus administration of ET-1 (Control, 1 μg/kg). Following recovery from this challenge, test-compounds were administered by intravenous bolus administration (0.5 ml) and then re-challenged with ET-1 thirty minutes later. Results are expressed as the percent inhibition of the ET-1-induced pressor response after administration of the test compound compared to the pressor response induced by the control ET-1 challenge. In some cases a third ET-1 challenge was administered ninety minutes after administration of the test compound.

Data set [5] is described as follows: Oral half-life and peak plasma levels in rat. Type of data set: in vivo. The following applies: for Peak Plasma Levels: in vivo; for POt½ in Rat: oral. An excerpt:
As used herein, bioavailability refers to the rate and extent of absorption. Methods for determining bioavailability are well known to those of skill in the art. For example, bioavailability of any of the compounds described herein can be determined empirically by administration of the compound to an animal, followed by taking blood samples over time and measuring the blood concentration of the compound. In vivo half life (t½) is defined as the time it takes for the concentration of the compound in the blood to be reduced by one-half. Estimations of the area under the curve for intravenous administration can be used to estimate the area under the curve for oral administration, yielding bioavailability data. See, e.q., Milo Gibal (1991) Biopharmaceutics and Pharmacology, 4th edition (Lea and Sediger).
Table 4 lists oral half-life, bioavailability, and in vivo activity of selected exemplary compounds. The in vivo activity was measured in a pulmonary hypertension model and is a measure of the activity of the compounds at selected dosages.

Setting [6] is: Table 1, † incubation at 24° C.
Setting [7] is: Table 3, † incubation at 24° C.

Where two headings read alike, the source gives them in different places.

As for `Cc1noc(NS(=O)(=O)c2ccc(COCc3ccccc3)s2)c1Br` [N-(4-bromo-3-methyl-5-isoxazolyl)-5-(benzyloxymethyl)thiophene-2-sulfonamide], the melting point came to 92 °C. Further, the IC50 in data set [1] (setting [6]) worked out at 12000 nM. Moreover, in data set [2] († incubation at 24° C.), the IC50 came out at 9000 nM.

Turning to `Cc1noc(NS(=O)(=O)c2c(Cc3ccc4c(c3)OCO4)sc3ccccc23)c1Br` [N-(4-bromo-3-methyl-5-isoxazolyl)-2-[3,4-(methylenedioxy)benzyl]benzo[b]thiophene-3-sulfonamide], the IC50 in data set [1] (Table 1, incubation at 4° C.) came to 1.5 ± 1.4 nM; in data set [1] (setting [6]), 7.4 ± 1.1 nM; in data set [2] (incubation at 4° C.), 324 ± 780 nM; in data set [2] († incubation at 24° C.), 939 ± 262 nM. The “effect on blood pressure” value in data set [3] is recorded as “effective in decreasing blood pressure”.

For the compound `CC(=O)c1cc2c(cc1NC(=O)c1sccc1S(=O)(=O)Nc1onc(C)c1Cl)OCO2` [N-(4-chloro-3-methyl-5-isoxazolyl)-2-{[2-acetyl-4,5-(methylenedioxy)phenyl]aminocarbonyl}thiophene-3-sulfonamide], the IC50 in data set [1] (setting [6]) was found to be 10 nM; in data set [2] († incubation at 24° C.) it was 31600 nM. Further, in data set [4], the reduction of pressure entry is “about 30%”.

`Cc1cc(C)c(NC(=O)c2sccc2S(=O)(=O)Nc2onc(C)c2Cl)c(C)c1C#N` [N-(4-chloro-3-methyl-5-isoxazolyl)-2-(3-cyano-2,4,6-trimethylphenylaminocarbonyl)thiophene-3-sulfonamide]: in data set [5], the “Peak Plasma Levels” value stood at 20 µg/mL and the “POt½ in Rat” value came out at 3.9 h.

In turn, `Cc1cc(C)c(N(C(=O)c2sccc2S(N)(=O)=O)c2onc(C)c2Cl)c(C)c1O` [Example 52, N^2-(4-Chloro-3-methyl-5-isoxazolyl)-N-(3-hydroxy-2,4,6-trimethylphenyl)-3-sulfamoyl-2-thiophenecarboxamide] registered a melting point of 75 to 78 °C.

Regarding `Cc1cc(C)c(NS(C)(=O)=O)c(C)c1NC(=O)c1sccc1S(=O)(=O)Nc1onc(C)c1Cl` [N-(4-chloro-3-methyl-5-isoxazolyl)-2-(3-methanesulfonylamino-2,4,6-trimethylphenylaminocarbonyl)thiophene-3-sulfonamide], in data set [5], the “Peak Plasma Levels” value was 2.6 µg/mL and the “POt½ in Rat” value worked out at 5.9 h.

For the compound `COc1ccc(NC(=O)c2sccc2S(=O)(=O)Nc2onc(C)c2Cl)c(C)c1` [N-(4-chloro-3-methyl-5-isoxazolyl)-2-[4-methoxy-2-methylphenyl)aminocarbonyl]thiophene-3-sulfonamide], in data set [4], the reduction of pressure result is given as “about 30%”.

Compound `Cc1ccc(OCc2sccc2S(=O)(=O)Nc2onc(C)c2Br)cc1` [N-(4-bromo-3-methyl-5-isoxazolyl)-2-[(4-methylphenoxy)methyl]thiophene-3-sulfonamide] yielded a melting point of 128 to 130 °C.

Consider `Cc1noc(NS(=O)(=O)c2ccsc2C(N)=O)c1Br` [N-(4-bromo-3-methyl-5-isoxazolyl)-2-(aminocarbonyl)thiophene-3-sulfonamide], for which the melting point was 168 to 170 °C.

`Cc1noc(NS(=O)(=O)c2ccsc2C(=O)Nc2ccccc2O)c1Br` [N-(4-bromo-3-methyl-5-isoxazolyl)-2-[(2-hydroxyphenyl)aminocarbonyl]thiophene-3-sulfonamide] gave a melting point of 42 to 44 °C.

For the compound `Cc1cc(C)c(NC(=O)c2sccc2S(=O)(=O)Nc2onc(C)c2Cl)c(C)c1CC#N` [N-(4-chloro-3-methyl-5-isoxazolyl)-2-(3-cyanomethyl-2,4,6-trimethylphenylaminocarbonyl)thiophene-3-sulfonamide], the IC50 in data set [1] (setting [6]) is 0.6 nM; in data set [2] († incubation at 24° C.), around 45000 nM. Further, in data set [5], the “Peak Plasma Levels” value is 40.2 µg/mL. The “POt½ in Rat” value in data set [5] amounted to 3.4 h.

Consider `Cc1cc(C)c(NC(=O)c2sccc2S(=O)(=O)Nc2onc(C)c2Cl)c(C(=O)C2CC2)c1` [3-(((4-chloro-3-methyl-5-isoxazolyl)amino)sulfonyl)-N-(2-(cyclopropylcarbonyl)-4,6-dimethylphenyl)-2-thiophenecarboxamide], for which the ETA/ETB selectivity in data set [1] (Table 3) is recorded as 45000^∥. For the same compound, the IC50 in data set [1] (setting [7]) came out at 0.36 nM. Besides, in data set [5], the “Peak Plasma Levels” value was 53 µg/mL and the “POt½ in Rat” value worked out at 5.5 h.

Compound `Cc1noc(NS(=O)(=O)c2ccc(-c3ccon3)s2)c1Br` [Example 10, N-(4-Bromo-3-methyl-5-isoxazolyl)-5-(3-isoxazolyl)thiophene-2-sulfonamide] showed a melting point of 120 to 123 °C.

With `Cc1ccc(NC(=O)c2sccc2S(=O)(=O)Nc2onc(C)c2Cl)cc1` [N-(4-chloro-3-methyl-5-isoxazolyl)-2-[(4-tolyl)aminocarbonyl]thiophene-3-sulfonamide], in data set [3], the “effect on blood pressure” value is given as “effective in decreasing blood pressure”.

With `Cc1cc(C)c(NC(=O)c2sccc2S(=O)(=O)Nc2onc(C)c2Cl)c(C)c1CO` [N-(4-chloro-3-methyl-5-isoxazolyl)-2-(3-hydroxymethyl-2,4,6-trimethylphenylaminocarbonyl)thiophene-3-sulfonamide], the IC50 in data set [1] (setting [6]) stood at 0.4 nM. Moreover, in data set [2] († incubation at 24° C.), the IC50 was around 80000 nM. In data set [5], the “Peak Plasma Levels” value was 3 µg/mL and the “POt½ in Rat” value was found to be 1.5 h.

As to `Cc1cc(C)c(NC(=O)c2sccc2S(=O)(=O)Nc2onc(C)c2Cl)c(C(=O)C(C)C)c1` [3-(((4-chloro-3-methyl-5-isoxazolyl)amino)sulfonyl)-N-(2-isobutyryl-4,6-dimethylphenyl)-2-thiophenecarboxamide], the ETA/ETB selectivity in data set [1] (Table 3) is 14000^∥. In addition, in data set [1] (setting [7]), the IC50 came out at 1.11 nM. Moreover, in data set [5], the “Peak Plasma Levels” value amounted to 59 µg/mL and the “POt½ in Rat” value amounted to 5.4 h.

With `COc1cc(C#N)c(NC(=O)c2sccc2S(=O)(=O)Nc2onc(C)c2Cl)cc1OC` [N-(4-chloro-3-methyl-5-isoxazolyl)-2-[{2-cyano-4,5-dimethoxyphenyl)aminocarbonyl]thiophene-3-sulfonamide], the reduction of pressure result in data set [4] is listed as “about 30%”.
